Read-outs that look alike come from different tables or passages of the source.
Legend:
ncih1436 = test: In vitro ADC activity with combination partners, CellTiter-Glo 5 days, ncih1436 (Example 13); type: cell-based; conditions: single agent
Protocol: (§1) Antibody drug conjugates (ADCs) targeting IgG, B7H3, CD56, DLK1, DLL3, EpCAM, and SEZ6 were tested against cancer cell lines obtained from ATCC (American Type Culture Collection) or from other commercial cell line vendors (cor1279, ncih1436, ncih146, ncih211, ncih524). The cells were cultured in media that is optimal for their growth at 5% CO2, 37° C. in a tissue culture incubator. Prior to seeding for the proliferation assay, the cells were split at least 2 days before the assay to ensure optimal growth density. On the day of seeding, cells were lifted off tissue culture flasks using 0.25% trypsin. Cell viability and cell density were determined using a cell counter (Vi-Cell XR Cell Viability Analyzer, Beckman Coulter). Cells with higher than 85% viability were seeded in white clear bottom 384-well plates (Greiner cat #781098) at a density of 1000 cells per well in 50 μL of standard growth media. Plates were incubated at 37° C. overnight in a tissue culture incubator.
(§2) The ADCs were prepared in standard phosphate buffered solution to desired concentrations. A series of 10 dilutions were made for each ADC. The prepared drug treatments were then added to the cells resulting in final concentrations of 300 nM to 0.015 nM. Combination partners (Venetoclax and Topotecan) were added at fixed concentrations. Acoustic transfer devices (Echo525, Echo550, Beckman Coulter) were used to add the ADCs or combination partners to the cells. Each treatment was tested in triplicate assay plates. Plates were incubated at 37° C. overnight or for 5 days in a tissue culture incubator. The ability of the ADCs to inhibit cell proliferation and survival was assessed using the Promega CellTiter-Glo® proliferation assay. Plates were incubated at room temperature for 20 minutes to stabilize luminescent signals prior to reading using a multimode plate reader (Pherastar, BMG). Luminescent counts of untreated cells were taken the day after seeding (Day 0 readings), and after 5 days of treatment (Day 5 readings). The Day 5 readings of the untreated cells were compared to the Day 0 readings. Assays with at least one cell doubling during the incubation period were considered valid. To evaluate the effect of the drug treatments, luminescent counts from wells containing untreated cells (100% viability) were used to normalize treated samples. The concentrations of treatment required to inhibit 50% of cell growth or survival ([…]) were calculated using a four parameter logistic regression equation.

ncih146 = test: In vitro ADC activity with combination partners, CellTiter-Glo 5 days, ncih146 (Example 13); type: cell-based; conditions: single agent
Protocol: as §1, §2

corl279 = test: In vitro ADC activity with combination partners (Venetoclax, Topotecan), CellTiter-Glo 5 days, corl279 (Example 13); type: cell-based; conditions: single agent
Protocol: as §1, §2

H1650 cells = test: CellTiterGlo (CTG) cell viability, 3D, 120 h, H1650 (Example 8); type: cell-based, human; conditions: Homo sapiens, NCI-H1650, H1650 3D
LOUCY (T-ALL) = test: CellTiter-Glo viability 72 h, single agent or 1/1 combination, LOUCY (Example 9); type: cell-based; conditions: single agent or 1/1 combination as labelled
Protocol: Cell lines were cultured in the media described above at 37° C. in a humidified atmosphere containing 5% CO2. Cells were seeded in 96 well clear bottom plates (96 well clear-bottom, white, Corning reference 3903) and exposed to the payloads or ADCs at single agents or in 1/1 combinations with vincristine, ABT-199 or compound A2 for 72 h (serially diluted; 9 concentrations each, triplicates). Effects of payloads or ADCs on cell viability were assessed after 3 days of incubation at 37° C./5% CO2 by quantification of cellular ATP levels using CellTiter-Glo reagent (Promega Ref: G7571) at 75 μL reagent/well. All the conditions were tested in triplicates. Luminescence was quantified on a multipurpose plate reader. IC50s were calculated using standard four-parametric curve fitting. […] Each experiment was performed at least twice, with results being reproducible.

ALL-SIL cells = test: CellTiterGlo (CTG) cell viability, 72 h, ALL-SIL (Example 8); type: cell-based
How it was run: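 In RPMI with 20% FBS, ALL-SIL cells were exposed for 72 h to serially diluted payloads or ADCs (9 concentrations, triplicate) at 37 °C/5% CO2. Viability was measured as cellular ATP by CellTiterGlo luminescence, with IC50 from four-parameter fit.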

Cc1c(Nc2nc3ccccc3s2)nnc2c1CCCN2c1ccc(-c2cnn(C[C@]34C[C@]5(C)C[C@](C)(C3)C[C@@](OCCN3CCCC3)(C5)C4)c2C)c(C(=O)O)n1 [P21, 6-[3-(1,3-benzothiazol-2-ylamino)-4-methyl-6,7-dihydro-5H-pyrido[2,3-c]pyridazin-8-yl]-3-[1-[[3,5-dimethyl-7-(2-pyrrolidin-1-ylethoxy)-1-adamantyl]methyl]-5-methyl-pyrazol-4-yl]pyridine-2-carboxylic acid]
GI50 (ncih1436; Homo sapiens, NCI-H1436, 120 h): 0.000508 µM
GI Amax ncih1436 (ncih1436): −94.5
GI50 (ncih146; Homo sapiens, NCI-H146, 120 h): 0.000508 µM
GI Amax ncih146 (ncih146): −98.38
GI50 (corl279; Homo sapiens, COR-L279, 120 h): 0.00242 µM
GI Amax corl279 (corl279): −88.27
IC50 (H1650 cells; experiment n1, read-out: H1650 3D CTG IC50 n1): 310 pM
IC50 (H1650 cells; experiment n2, read-out: H1650 3D CTG IC50 n2): 370 pM
IC50 (H1650 cells; mean of n1 and n2, read-out: H1650 3D CTG IC50 Mean of n1 and n2): 340 pM
IC50 (LOUCY (T-ALL); mean, read-out: LOUCY (T-ALL) IC50 mean): 730 pM
IC50 (LOUCY (T-ALL); n1, read-out: LOUCY (T-ALL) IC50 n1): 730 pM
IC50 (ALL-SIL cells; experiment n1, read-out: ALLSIL CTG 72 h IC50 nM n1): 0.02 nM
IC50 (ALL-SIL cells; experiment n2, read-out: ALLSIL CTG 72 h IC50 nM n2): 0.05 nM
IC50 (ALL-SIL cells; mean of n1 and n2, read-out: ALLSIL CTG 72 h IC50 nM Mean of n1 and n2): 0.04 nM
